≈ marks a conversion by molar mass, not a printed value. Where “and” joins values, the source holds several entries; their conditions need not be identical. Equal entries are not always repeated. Where two headings read alike, the source gives them in different places.
Experiments:
[1] = Hydrolysis kinetics in rat whole blood; type: in vitro ADME
Description: Kinetic analysis of Fer-Ger was performed by incubating the compound at 37 °C in heparinized whole blood obtained from healthy human volunteers or from male Wistar rats weighing 200–250 g. In particular, appropriate amounts of stock solution in DMSO were added to a volume of 3 mL of whole blood in order to obtain the final concentration of 30 µM (9.92 µg/mL). Samples (100 μL) were withdrawn at defined time intervals and immediately treated. Specifically, they were firstly added to ice-cold water (500 µL); then, sulfosalicylic acid (10%, 50 µL) and the internal standard (100 μM carbazole dissolved in a mixture of MeOH and H2O 50:50 v/v, 50 µL) were added; finally, 1 mL of H2O-saturated ethyl acetate was used twice as extraction solvent. The samples were centrifuged (13,500× g for 10 min) and the organic phase was evaporated under a nitrogen stream. The residue was re-suspended in a mixture of H2O and CH3CN (50:50 v/v, 150 µL) and centrifuged (16,000× g for 5 min). […] All the values were derived from the mean of three independent incubation experiments.
The Fer-Ger degradation in whole blood or homogenates was analyzed as exponential decay plots of its concentrations versus incubation time, and the related half-life values were obtained from the linear regression of the corresponding semi-logarithmic plots. The quality of the fits was evaluated by considering the correlation coefficients (r) and p values. The computer program GraphPad Prism 7 (GraphPad, San Diego, CA, USA) allowed to perform the calculations.
Fer-Ger and its hydrolysis product, Ger, were quantified by HPLC. The chromatographic apparatus consisted of a modular system (model LC-40D) pump and DAD detector (model SPD-M40, Shimadzu, Kyoto, Japan) and an injection valve with a 20 μL sample loop (model 7725; Rheodyne, IDEX, Torrance, CA, USA).

[2] = test system: neuronal differentiated N2a cells; assay: Time-course of uptake in neuronal differentiated N2a cells; type: cell-based, mouse
Description: N2a cells were seeded on T75 flasks and grown in Dulbecco’s Modified Eagle Medium (DMEM) containing Glutamax, supplemented with 100 μg/mL streptomycin, 100 IU/mL penicillin, and 10% fetal bovine serum (FBS) in a humidified 5% CO2 atmosphere at 37 °C. After two passages by trypsinization, cells were seeded at a density of 5 × 10^3 cells/well in 12-well plates with 2 mL of DMEM or at a density of 5 × 10^2 cells/well in 96-well plates with 0.2 mL of DMEM, depending on the study (see below). For neural differentiation, N2a cells were allowed to adhere and proliferate in wells for 4 days; then, after washing once with serum-free DMEM, differentiating medium composed of DMEM containing 1% HS and 20 μM all-trans-retinoic acid (atRA) was added in both the seeding conditions, up to 6 days of differentiation, after which the cells were used for the experiments.
The potential ability of Fer-Ger to enter the neuronal cells of the brain, where it may exert its neuroprotective effects, was evaluated in 9 days-neuronal differentiated N2a cells (5 × 10^3 cells/well in a 12-well plate) at its best non-toxic concentrations of 5 µM and 10 µM in MTT. For their optimal dissolution, 5 µM and 10 µM Fer-Ger solutions in DPBS containing 0.1% BSA were kept for 30 min at 37 °C before the uptake experiment. Each of the 12-well plates was rinsed once with 1 mL of DPBS, and then 1 mL of 5 µM and 10 µM Fer-Ger was added to the test wells, and the plate was incubated for pre-determined interval times (5, 15, 30, and 60 min) in a humidified 5% CO2 atmosphere at 37 °C. The incubation was stopped at each time by taking the incubation DPBS from each well and storing it in Eppendorf tubes. […] The final number of cells was evaluated on untreated wells following their trypsinization and counted using the Scepter^TM 2.0 automated cell counter (Merck Millipore, Milan, Italy). Each reported value represents the mean of four independent incubation experiments.

Solubility measurements = type: physicochemical; conditions: 25 °C, thermodynamic from solid
Description: Solubility measurements of pure Fer-Ger were performed by adding an excess amount of Fer-Ger (about 10 mg) in 5 mL of pure water, DPBS, or a mixture made of DPBS and methanol (70:30 v/v) at 25 °C. The samples were magnetically stirred for 48 h. The supernatant was filtered through a 0.45 μm regenerate-cellulose membrane filter, and 10 µL of the filtered samples were injected into the HPLC-DAD system for Fer-Ger quantification. The study was performed in triplicate.

[3] = test system: neuronal differentiated N2a cells; assay: MTT assay for evaluation of Fer-Ger toxicity; type: cell-based, mouse; conditions: 1 h exposure
Description: N2a cells were seeded on T75 flasks and grown in Dulbecco’s Modified Eagle Medium (DMEM) containing Glutamax, supplemented with 100 μg/mL streptomycin, 100 IU/mL penicillin, and 10% fetal bovine serum (FBS) in a humidified 5% CO2 atmosphere at 37 °C. After two passages by trypsinization, cells were seeded at a density of 5 × 10^3 cells/well in 12-well plates with 2 mL of DMEM or at a density of 5 × 10^2 cells/well in 96-well plates with 0.2 mL of DMEM, depending on the study (see below). […]
The potential neurotoxicity of Fer-Ger in N2a differentiated cells, seeded at a density of 5 × 10^2 cells/well in a 96-well plate as reported above, was assayed with the 3-(4,5-dimethylthiazol-2-yl)-2,5-diphenyltetrazolium (MTT) test after incubation for 1 h at 37 °C in a humidified 5% of CO2 atmosphere at 37 °C with increasing concentrations (1, 5, 10, 40, 70, 100 µM) of Fer-Ger dissolved in 0.2 mL of DPBS, supplemented with 0.9 mM CaCl2, 0.5 mM MgCl2, 5.3 mM glucose, and 0.1% BSA to ensure the solubilization of the compound in aqueous media. […] Finally, the absorbance of each well was measured at 570 nm using a microtiter plate reader (Sunrise® Microplate Reader, Tecan Trading AG, Männedorf, Switzerland). The values were expressed as cell vitality percentages with respect to control in the absence of compounds. […]

Compound: COc1cc(/C=C/C(=O)OC/C=C(\C)CCC=C(C)C)ccc1O [Fer-Ger, Geranyl ferulate]
- half-life at 30 µM ([1]; male, Wistar, heparinized whole blood, rat whole blood, 37 °C, 30 µM, pseudo-first-order kinetic, read-out: half-life (t1/2) of hydrolysis): 20.1 ± 0.75 min
- time to almost complete degradation ([1]; rat whole blood): ≤ 2 h
- hydrolysis rate relative to human whole blood ([1]; rat whole blood vs human whole blood): about 10 times faster
- intracellular concentration (cellular uptake), saturation ([2]; 5 μM Fer-Ger in DPBS, within 60 min, 37 °C): 18.36 ± 2.52 ng/5 × 10^4 cells
- intracellular concentration (cellular uptake) ([2]; 5 μM Fer-Ger in DPBS, within the first 5 min of incubation, 37 °C): 9.46 ± 0.98 ng/5 × 10^4 cells
- intracellular concentration (cellular uptake), steady state ([2]; 10 μM Fer-Ger in DPBS, within 60 min, 37 °C): 46.73 ± 2.25 ng/5 × 10^4 cells
- intracellular concentration (cellular uptake) ([2]; 10 μM Fer-Ger in DPBS, within the first 5–15 min of incubation, 37 °C): 36.83 ± 1.65 ng/5 × 10^4 cells
- hydrolysis by neuronal cells (Ger detection intra- and extracellular) ([2]; N2a cells, 5 and 10 μM, up to 60 min): not hydrolyzed by neuronal cells
- solubility at 48 h (Solubility measurements; DPBS, aqueous buffer, read-out: solubility in DPBS): 0.24 ± 0.01 µg/mL (≈ 0.726 µM)
- solubility at 48 h (Solubility measurements; DPBS/methanol 70:30 v/v, aqueous with cosolvent or surfactant or cyclodextrin, DPBS and MeOH 70:30 v/v, read-out: solubility in mixture of DPBS and MeOH): 8.1 ± 0.3 µg/mL (≈ 24.5 µM)
- solubility at 48 h (Solubility measurements; pure water, water, read-out: water solubility): 0.26 µg/mL and 0.77 µM
- concentration at which neurotoxic effect starts ([3]; p < 0.05 vs untreated cells): 40 µM
- IC50 ([3]; Mus musculus, neuronal differentiated N2a cells, read-out: IC50 value of cell viability): 84.09 ± 0.26 µM
